Measured values reported in patent publication US8946248B2, “HIV inhibiting 5-substituted pyrimidines” (priority 2004, dated 2015).
One block for each molecule: values may come before it.

How the values were obtained:
[1] = tested on: Strain A, mutation Y181C in HIV reverse transcriptase; test: Antiviral activity, cellular assay, strain A; type: cell-based; details: for pEC50 A: HIV strain with RT mutation Y181C, cellular assay
Protocol: (§1) Because of the increasing emergence of drug resistant HIV strains, the present compounds were tested for their potency against clinically isolated HIV strains harboring several mutations. These mutations are associated with resistance to reverse transcriptase inhibitors and result in viruses that show various degrees of phenotypic cross-resistance to the currently commercially available drugs such as for instance AZT and delavirdine.
(§2) The antiviral activity of the compound of the present invention has been evaluated in the presence of wild type HIV and HIV mutants bearing mutations at the reverse transcriptase gene. The activity of the compounds is evaluated using a cellular assay and the residual activity is expressed in pEC50 values. The columns IIIB and A-G in the table list the pEC50 values against various strains IIIB, A-G.
Strain A contains mutation Y181C in HIV reverse transcriptase, […]

[2] = tested on: Strain D, mutation Y188L in HIV reverse transcriptase; test: Antiviral activity, cellular assay, strain D; type: cell-based; details: for pEC50 D: HIV strain with RT mutation Y188L, cellular assay
Protocol: as §1, §2
Strain D contains mutation Y188L in HIV reverse transcriptase, […]

[3] = tested on: Strain IIIB, wild type HIV-LAI strain; test: Antiviral activity, cellular assay, strain IIIB; type: cell-based
Protocol: as §1, §2
Strain IIIB is wild type HIV-LAI strain

[4] = Antiviral activity, cellular assay, strain G; type: cell-based, HIV; details: Human immunodeficiency virus 1, read-out: pEC50 G (converted)
Protocol: as §1, §2

[5] = tested on: Strain C, mutation L100I in HIV reverse transcriptase; test: Antiviral activity, cellular assay, strain C; type: cell-based; details: for pEC50 C: HIV strain with RT mutation L100I, cellular assay
Protocol: as §1, §2
Strain C contains mutation L100I in HIV reverse transcriptase, […]

[6] = tested on: Strain F, mutations K103N and Y181C in HIV reverse transcriptase; test: microbe, parasite or virus in culture; type: cell-based; details: for pEC50 F: HIV strain with RT mutations K103N and Y181C, cellular assay
[7] = tested on: Strain E, mutations L100I and K103N in HIV reverse transcriptase; test: Antiviral activity, cellular assay, strain E; type: cell-based; details: for pEC50 E: HIV strain with RT mutations L100I and K103N, cellular assay
Protocol: as §1, §2
Strain E contains mutations L100I and K103N in HIV reverse transcriptase, […]

[8] = tested on: Strain B, mutation K103N in HIV reverse transcriptase; test: Antiviral activity, cellular assay, strain B; type: cell-based; details: for pEC50 B: HIV strain with RT mutation K103N, cellular assay
Protocol: as §1, §2
Strain B contains mutation K103N in HIV reverse transcriptase, […]

[9] = tested on: Strain G, mutations L100I, K103N, Y181C, V179I, Y181C, E138G, V179I, L2214F, V278V/1 and A327A/V in HIV reverse transcriptase; test: Antiviral activity, cellular assay, strain G; type: cell-based; details: HIV strain with RT mutations L100I, K103N, Y181C, V179I, E138G, L2214F, V278V/1 and A327A/V; cellular assay
Protocol: as §1, §2

melting point: > 250 °C
Compound: Cc1cc(/C=C/C#N)cc(C)c1Nc1nc(Nc2ccc(C#N)cc2)ncc1Br

melting point: > 250 °C
Compound: Cc1cc(/C=C/C#N)cc(C)c1Nc1nc(Nc2ccc(C#N)cc2)ncc1C(=O)O

melting point: > 250 °C
Compound: Cc1cc(/C=C/C#N)cc(C)c1Nc1nc(Nc2ccc(C#N)cc2)ncc1C(N)=O

melting point: > 250 °C
Compound: CC(=O)Nc1cnc(Nc2ccc(C#N)cc2)nc1Nc1c(C)cc(/C=C/C#N)cc1C

melting point: 236 °C
Compound: N#C/C=C/c1cc(F)c(Nc2nc(Nc3ccc(C#N)cc3)ncc2Br)c(Cl)c1

melting point: > 250 °C
Compound: Cc1cc(/C=C/C#N)cc(C)c1Nc1nc(Nc2ccc(C#N)cc2)ncc1[N+](=O)[O-]

melting point: > 250 °C
Compound: Cc1cc(/C=C/C#N)cc(C)c1Nc1nc(Nc2ccc(C#N)cc2)ncc1N

melting point: > 250 °C
Compound: N#C/C=C/c1cc(F)c(Nc2nc(Nc3ccc(C#N)cc3)ncc2[N+](=O)[O-])c(Cl)c1

melting point: > 250 °C
Compound: N#C/C=C/c1cc(F)c(Nc2nc(Nc3ccc(C#N)cc3)ncc2N)c(Cl)c1

Compound: Cc1cc(/C=C/C#N)cc(C)c1Nc1nc(Nc2ccc(C#N)cc2)ncc1NC=O [Compound 13]
EC50 ([1]; Human immunodeficiency virus 1, read-out: pEC50 A (converted)): 2.51 nM
EC50 ([2]; Human immunodeficiency virus 1, read-out: pEC50 D (converted)): 3.16 nM
EC50 ([3]; Human immunodeficiency virus 1, IIIB): 0.398 nM
EC50 [4]: 1000 nM
EC50 ([5]; Human immunodeficiency virus 1, read-out: pEC50 C (converted)): 0.631 nM
EC50 ([6]; Human immunodeficiency virus 1, read-out: pEC50 F (converted)): 3.98 nM
EC50 ([7]; Human immunodeficiency virus 1, read-out: pEC50 E (converted)): 6.31 nM
EC50 ([8]; Human immunodeficiency virus 1, read-out: pEC50 B (converted)): 0.631 nM

Compound: Cc1cc(CCC#N)cc(C)c1Nc1nc(Nc2ccc(C#N)cc2)ncc1C(N)=O [Compound 26]
pEC50 A [1]: 9
pEC50 D [2]: 8.6
pEC50 IIIB [3]: 9.7
pEC50 G [9]: 6.4
pEC50 C [5]: 10
pEC50 F [6]: 9.2
pEC50 E [7]: 9.2
pEC50 B [8]: 9.7

Compound: CC(=O)Nc1cnc(Nc2ccc(C#N)cc2)nc1Nc1c(F)cc(/C=C/C#N)cc1Cl [Compound 28]
pEC50 A [1]: 7.9
pEC50 D [2]: 7.3
pEC50 IIIB [3]: 8.8
pEC50 G [9]: 4.7
pEC50 C [5]: 8.3
pEC50 F [6]: 7.3
pEC50 E [7]: 7
pEC50 B [8]: 8.6

Compound: CCON=Cc1cnc(Nc2ccc(C#N)cc2)nc1Nc1c(C)cc(/C=C/C#N)cc1C [Compound 31]
pEC50 A [1]: 8.2
pEC50 D [2]: 8.2
pEC50 IIIB [3]: 8.5
pEC50 G [9]: 5.1
pEC50 C [5]: 8.5
pEC50 F [6]: 8.2
pEC50 E [7]: 8.2
pEC50 B [8]: 8.5

Compound: CON=Cc1cnc(Nc2ccc(C#N)cc2)nc1Nc1c(C)cc(/C=C/C#N)cc1C [Compound 32]
pEC50 A [1]: 8.5
pEC50 D [2]: 8.6
pEC50 IIIB [3]: 8.5
pEC50 G [9]: 6
pEC50 C [5]: 9.3
pEC50 F [6]: 8.7
pEC50 E [7]: 8.6
pEC50 B [8]: 8.7
